The test system of experiment [1] is NQO1 specific enzyme activity in BEAS-2B cells (marker for NRF2 activation). Nature of the experiment: BEAS-2B NQO1 MTT Assay. The experiment is classed as cell-based. As to conditions: Homo sapiens, compound incubated 48 hours, read-out: EC50 (NQO1 specific enzyme activity induction). The method in brief:
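BEAS-2B cells treated with compound for 48 h at 37 °C, then lysed; NQO1 activity in lysates measured kinetically by MTT reduction at A570 over 30 min. pEC50 from 3-parameter fit of ΔOD/min versus log concentration; lysate also taken for Cell Titer Glo.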

Experiment [2] deals with T1, Keap1 Kelch domain (321-609) / TAMRA-labeled 16mer NRF2 peptide (ETGE motif) (Homo sapiens, UniProt Q14145).
T1 construct: the Kelch domain (321-609) of Keap1 is used
As to the kind of experiment: NRF2-Keap1 FP Assay (Keap1 Kelch fluorescence polarization). As to conditions: 20 nM Keap1 (321-609), 8 nM Tamra labeled peptide. The experiment is classed as binding. The method, boiled down:
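Compound dilutions (3-fold) were incubated 1 hr at room temperature with 20 nM Keap1 Kelch (321-609) and 8 nM TAMRA-labeled ETGE 16mer peptide. Buffer was 50 mM Tris pH 8.0, 100 mM NaCl, 5 mM MgCl2, 1 mM DTT, 2 mM CHAPS, 0.005% BSA. Fluorescence polarization (mP) was normalized to controls and fitted with a four-parameter equation to give pIC50.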
A general note: Fluorescence polarisation rises when a labelled molecule tumbles more slowly, as on binding a larger partner.

The target of experiment [3] is T2, full length Keap1 protein / full length NRF2 protein (Homo sapiens, UniProt Q14145).
T2 construct: full length NRF2 protein and full length Keap1 protein (Keap1 exists a dimer) are used; His
Nature of the experiment: NRF2-Keap1 TR-FRET Assay. The experiment is classed as binding. Particulars: 25 nM Keap1-FlagHis and 50 nM biotin-NRF2 added. An excerpt: In the NRF2-Keap1 TR-FRET (time-resolved fluorescence resonance energy transfer) assay, full length NRF2 protein and full length Keap1 protein (Keap1 exists a dimer) are used. The assay detects the ability of compound to displace the binding of FlagHis-tagged Keap1 with biotinylated, Avi-tagged NRF2 protein. Biotin-NRF2 binds to streptavidin-europium (a component of the detection mix) and Keap1-FlagHis is recognized by anti-Flag APC (allophycocyanin) antibody (also a component of the detection mix). If binding occurs between the two proteins, there will be an energy transfer from the Eu+3 (donor) at 615 nm to the APC (acceptor) at 665 nm. A potential Keap1 inhibitor will cause a reduction in the TR-FRET signal by interfering with the binding of Keap1 to NRF2.
One hundred nanoliters of 100× compound dose response curves (serial 3-fold dilutions) in DMSO are stamped using an Echo liquid handling system (Labcyte) into 384-well, low volume, black assay plates (Greiner, #784076), with DMSO in columns 6 and 18. The top concentration of compound is located in columns 1 and 13. All reagents are diluted in assay buffer (50 mM Tris, pH 8.0, 5 mM MgCl2, 100 mM NaCl, 0.005% BSA, 1 mM DTT, and 2 mM CHAPS). The BSA, DTT, and CHAPS are added to the assay buffer on the day of assay. Using a Multidrop Combi (Thermo Electron Corporation) equipped with a metal tip dispenser, 5 ul of 25 nM Keap1-FlagHis protein is added to all wells of the compound plate, with the exception of the wells in column 18. Wells in column 18 receive 5 ul of assay buffer instead. Plates are centrifuged at 500 rpm for 1 minute, covered with a plate lid, and incubated at 37° C. for 2.25 hours. Plates are then removed from the incubator and allowed to cool to RT for 15 minutes. Five microliters of 50 nM biotin-NRF2 protein is then added to all wells of the plates and the plates are spun at 500 rpm for 1 minute, followed by incubating at 4° C. for 1.25 hours. The plates are then allowed to warm to RT for 15 minutes, followed by the addition of 10 ul of detection mix (1 nM Streptavidin Eu+ W1024 and 5 ug/ml mouse anti-DYKDDDDK IgG conjugated to SureLight APC antibody; both from Columbia Biosciences) to all wells. Plates are spun at 500 rpm for 1 minute, incubated for 1 hour at RT, and read on an Envision plate reader using a 320 nm excitation filter and 615 nm and 665 nm emission filters. Compound response (% inhibition) and potency (pIC50) are calculated based on the ratio of the two emissions (665 nm/615 nm) and then the transformed data is normalized against controls in the assay (control 1=1% DMSO in the presence of NRF2 and Keap1 protein and control 2=1% DMSO in the absence of protein). Data analysis is handled using the software package Abase XE (Surrey, United Kingdom). The % inhibition values are calculated from the ratio (transformed) data by the equation: 100−(100*(compound response−average control 2)/(average control 1−average control2)). For calculation of pIC50s, Abase XE uses a four parameter equation. pIC50 is the negative log of the IC50.
In general terms: In TR-FRET formats the signal depends on donor and acceptor labels being close together.

Drawing on US10364256B2 (GlaxoSmithKline Intellectual Property Development Limited, priority 2015, dated 2019), this text covers EC50 and IC50 for 17 compounds.

Like-named read-outs stand apart in the source and are kept apart here.

T1 sequence (Q14145 321-609): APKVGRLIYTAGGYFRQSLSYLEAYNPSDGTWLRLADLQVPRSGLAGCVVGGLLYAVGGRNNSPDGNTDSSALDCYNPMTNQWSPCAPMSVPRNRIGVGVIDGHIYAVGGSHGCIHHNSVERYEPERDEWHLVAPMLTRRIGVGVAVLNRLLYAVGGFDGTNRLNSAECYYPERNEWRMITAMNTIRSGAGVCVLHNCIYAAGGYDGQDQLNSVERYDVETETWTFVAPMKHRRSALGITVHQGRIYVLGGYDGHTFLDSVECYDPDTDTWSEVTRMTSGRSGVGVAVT
T2 sequence (Q14145 whole entry): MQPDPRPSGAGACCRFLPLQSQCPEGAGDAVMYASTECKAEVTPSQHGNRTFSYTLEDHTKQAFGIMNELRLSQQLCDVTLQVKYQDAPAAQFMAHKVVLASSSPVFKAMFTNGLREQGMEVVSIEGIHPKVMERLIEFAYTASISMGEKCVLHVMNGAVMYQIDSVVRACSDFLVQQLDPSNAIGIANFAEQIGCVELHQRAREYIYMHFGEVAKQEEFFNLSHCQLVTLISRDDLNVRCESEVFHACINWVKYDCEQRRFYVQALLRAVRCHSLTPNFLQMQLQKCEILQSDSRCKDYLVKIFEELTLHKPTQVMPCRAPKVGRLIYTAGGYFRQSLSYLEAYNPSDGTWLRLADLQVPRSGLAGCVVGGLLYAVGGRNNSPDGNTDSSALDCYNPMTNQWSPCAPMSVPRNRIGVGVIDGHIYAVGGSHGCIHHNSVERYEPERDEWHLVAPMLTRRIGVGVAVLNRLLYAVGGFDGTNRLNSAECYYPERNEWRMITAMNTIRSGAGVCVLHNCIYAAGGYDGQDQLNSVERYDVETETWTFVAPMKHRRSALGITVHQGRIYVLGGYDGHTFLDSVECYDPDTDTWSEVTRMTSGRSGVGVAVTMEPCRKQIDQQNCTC

Usually EC50 stands for the concentration that produces a half-maximal response. As a reminder, the IC50 is the concentration at which inhibition is half-maximal. The low end stands for greater potency, the high end for weaker potency. Turning to `CC(=O)N[C@@H]1CC[C@H](c2c(C(=O)O)cnn2-c2cccc(-c3cccc(OC(C)C)c3F)c2)C1` (racemic) [Example 13, 5-[(cis)-3-Acetamidocyclopentyl]-1-{3-[2-fluoro-3-(propan-2-yloxy)phenyl]phenyl}-1H-pyrazole-4-carboxylic Acid], the EC50 in experiment [1] fell in the range of 1000 to 10000 nM. For the same compound, the IC50 in experiment [2] is 1000 to 10000 nM; in experiment [3] it was 10000 to 100000 nM.
For the compound `CCC[C@@H]1CCCCN1C(=O)c1cccc(-c2cccc(-n3ncc(C(=O)O)c3CCc3cn(C)nn3)c2)c1` [Example 58, (R)-5-(2-(1-Methyl-1H-1,2,3-triazol-4-yl)ethyl)-1-(3′-(2-propylpiperidine-1-carbonyl)-[1,1′-biphenyl]-3-yl)-1H-pyrazole-4-carboxylic Acid], in experiment [1] (BEAS-2B, 48 h), the EC50 lay within 1000 to 10000 nM. Further, the IC50 in experiment [2] lay in the range of 10 to 100 nM; in experiment [3], 100 to 1000 nM.
As to `O=C(O)c1cnn(-c2cccc(-c3cccc(C(=O)N4CCCCC45CC5)c3F)c2)c1C1CC1` [Example 19, 1-[3-(3-{4-Azaspiro[2.5]octane-4-carbonyl}-2-fluorophenyl)phenyl]-5-cyclopropyl-1H-pyrazole-4-carboxylic Acid], the EC50 in experiment [1] was 1000 to 10000 nM. Besides, the IC50 in experiment [2] fell in the range of 100 to 1000 nM; in experiment [3] it was 1000 to 10000 nM.
`CN(CC1CC1)C(=O)c1cccc(-c2cccc(-n3ncc(C(=O)O)c3C(F)(F)F)c2)c1F` [Example 47, 1-(3-{3-[(cyclopropylmethyl)(methyl)carbamoyl]-2-fluorophenyl}phenyl)-5-(trifluoromethyl)-1H-pyrazole-4-carboxylic Acid]: the EC50 in experiment [1] lay within 1000 to 10000 nM. For the same compound, the IC50 in experiment [2] was 100 to 1000 nM; in experiment [3], 1000 to 10000 nM.
Regarding `Cn1cc([C@@H]2C[C@H]2c2c(C(=O)O)cnn2-c2cccc(-c3cccc(CN4CCCCC4)c3)c2)nn1` (racemic) [Example 247, 5-(trans-2-(1-Methyl-1H-1,2,3-triazol-4-yl)cyclopropyl)-1-(3′-(piperidin-1-ylmethyl)-[1,1′-biphenyl]-3-yl)-1H-pyrazole-4-carboxylic Acid], the EC50 in experiment [1] is 1000 to 10000 nM. For the same compound, the values for the IC50 in experiment [2] and in experiment [3] were 100 to 1000 nM and 1000 to 10000 nM, respectively.
As for `O=C(O)c1cnn(-c2cccc(-c3cccc(C(=O)N4CCOC5(CCCC5)C4)c3F)c2)c1C1CC1` [Example 44, 5-cyclopropyl-1-[3-(2-fluoro-3-{6-oxa-9-azaspiro[4.5]decane-9-carbonyl}phenyl)phenyl]-1H-pyrazole-4-carboxylic Acid], the EC50 in experiment [1] is 1000 to 10000 nM. The IC50 lay within 10 to 100 nM in experiment [2] and 100 to 1000 nM in experiment [3].
Take `CN(C)C(=O)c1cccc(-c2cccc(-n3ncc(C(=O)O)c3C3CCCC3)c2)c1F` [Example 1, 5-Cyclopentyl-1-{3-[3-(dimethylcarbamoyl)-2-fluorophenyl]phenyl}-1H-pyrazole-4-carboxylic Acid]: the EC50 in experiment [1] fell in the range of 1000 to 10000 nM. Also, the IC50 in experiment [2] was 100 to 1000 nM; in experiment [3], 10000 to 100000 nM.
Taken in the same sequence, the figures for `Cn1cc(C2CC2c2c(C(=O)O)cnn2-c2cccc(-c3cccc(C(O)C4CCCCC4)c3)c2)nn1` (stereo not drawn) [Example 220, 1-(3′-(Cyclohexyl(hydroxy)methyl)-[1,1′-biphenyl]-3-yl)-5-(2-(1-methyl-1H-1,2,3-triazol-4-yl)cyclopropyl)-1H-pyrazole-4-carboxylic acid] were 1000 to 10000 nM, 10 to 100 nM and 100 to 1000 nM.
Take `Cn1cc(C2CC2c2c(C(=O)O)cnn2-c2cccc(-c3cccc(OCC4CCOCC4)c3)c2)nn1` (stereo not drawn) [Example 174, 5-(2-(1-Methyl-1H-1,2,3-triazol-4-yl)cyclopropyl)-1-(3′-((tetrahydro-2H-pyran-4-yl)methoxy)-[1,1′-biphenyl]-3-yl)-1H-pyrazole-4-carboxylic acid]: in experiment [1], the EC50 lay in the range of 1000 to 10000 nM. Further, the IC50 in experiment [2] fell in the range of 10 to 100 nM; in experiment [3] it was 100 to 1000 nM.
Taken in the same sequence, the figures for `Cn1cc([C@@H]2C[C@H]2c2c(C(=O)O)cnn2-c2cccc(-c3cccc(CN4CCOCC4)c3)c2)nn1` (racemic) [Example 248, 5-(trans-2-(1-Methyl-1H-1,2,3-triazol-4-yl)cyclopropyl)-1-(3′-(morpholinomethyl)-[1,1′-biphenyl]-3-yl)-1H-pyrazole-4-carboxylic Acid] were 1000 to 10000 nM, 100 to 1000 nM and 100 to 1000 nM.
As for `CC1(C)CCCN(C(=O)c2cccc(-c3cccc(-n4ncc(C(=O)O)c4C4CC4)c3)c2F)C1` [Example 6, 5-Cyclopropyl-1-{3-[3-(3,3-dimethylpiperidine-1-carbonyl)-2-fluorophenyl]phenyl}-1H-pyrazole-4-carboxylic Acid], the EC50 in experiment [1] was 1000 to 10000 nM. Also, the results for the IC50 in experiment [2] and in experiment [3] were 10 to 100 nM and 100 to 1000 nM, respectively.
Taken in the same sequence, the figures for `CCCC1CCCN1C(=O)c1cccc(-c2cccc(-n3ncc(C(=O)O)c3C3CC3)c2)c1F` (stereo not drawn) [Example 26, 5-Cyclopropyl-1-{3-[2-fluoro-3-(2-propylpyrrolidine-1-carbonyl)phenyl]phenyl}-1H-pyrazole-4-carboxylic Acid] were 1000 to 10000 nM, 10 to 100 nM and 100 to 1000 nM.
For the compound `CC(=O)N1CCC(c2c(C(=O)O)cnn2-c2cccc(-c3cccc(C(=O)N(C)C)c3)c2)CC1` [Example 46], the EC50 in experiment [1] lay within 1000 to 10000 nM. For the same compound, the IC50 is 1000 to 10000 nM in experiment [2] and 10000 to 100000 nM in experiment [3].
As for `O=C(O)c1cnn(-c2cccc(-c3cccc(C(=O)N4CCCC5(CCCOC5)C4)c3F)c2)c1C1CC1` (stereo not drawn) [Example 43, 5-Cyclopropyl-1-[3-(2-fluoro-3-{2-oxa-8-azaspiro[5.5]undecane-8-carbonyl}phenyl)phenyl]-1H-pyrazole-4-carboxylic Acid], in experiment [1], the EC50 was in the range of 1000 to 10000 nM. Also, the results for the IC50 in experiment [2] and in experiment [3] were 10 to 100 nM and 100 to 1000 nM, respectively.
Taken in the same sequence, the figures for `CCn1cc(C2CC2c2c(C(=O)O)cnn2-c2cccc(-c3cccc(C(=O)N(C)C)c3)c2)nn1` (stereo not drawn) [Example 158, 1-(3′-(dimethylcarbamoyl)-[1,1′-biphenyl]-3-yl)-5-(2-(1-ethyl-1H-1,2,3-triazol-4-yl)cyclopropyl)-1H-pyrazole-4-carboxylic Acid] were 1000 to 10000 nM, 100 to 1000 nM and 1000 to 10000 nM.
For `Cn1cc(C2CC2c2c(C(=O)O)cnn2-c2cccc(-c3cccc(OCC4CCCCO4)c3)c2)nn1` (stereo not drawn) [Example 175, 5-(2-(1-Methyl-1H-1,2,3-triazol-4-yl)cyclopropyl)-1-(3′-((tetrahydro-2H-pyran-2-yl)methoxy)-[1,1′-biphenyl]-3-yl)-1H-pyrazole-4-carboxylic acid] the same measures were 1000 to 10000 nM, 10 to 100 nM and 100 to 1000 nM.
In the case of `CCC[C@@H]1CCCCN1C(=O)c1cc(F)cc(-c2cccc(-n3ncc(C(=O)O)c3C3CC3c3cn(C)nn3)c2)c1` (stereo partly drawn) [Example 198, 1-(3′-Fluoro-5′-((R)-2-propylpiperidine-1-carbonyl)-[1,1′-biphenyl]-3-yl)-5-(2-(1-methyl-1H-1,2,3-triazol-4-yl)cyclopropyl)-1H-pyrazole-4-carboxylic acid], the EC50 in experiment [1] (BEAS-2B, 48 h) is 100 to 1000 nM. Moreover, the IC50 in experiment [2] and in experiment [3] was 10 to 100 nM in each case.
